Data on 1 molecule can be found in patent US12624067B2, “Cyclic peptide, cell scaffold material, cell separating material, and medium” (FUJIFILM Corporation, priority 2019, dated 2026).

For one data set, the target named is human integrin αvβ5 (Homo sapiens, UniProt P06756+P18084). Briefly: Evaluation of integrin binding property (surface plasmon resonance, Biacore 3000, immobilized cyclic peptide). Summed up:
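Cyclic peptides amine-coupled to a CM5 chip via EDC/NHS, with a blank reference channel; integrin injected 10 min at 25 °C at 30, 100, 300 and 1,000 nM in HEPES pH 7.4, 150 mM NaCl, 5 mM MgCl2, then 30 min buffer flow, EDTA regeneration. Kd from reference-subtracted responses, graded by category.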
In general terms: In SPR one partner is held on a chip, and binding of the other changes the refractive index at the surface.

A short description of data set [1]: Evaluation of molecule stability (alkali treatment, LC/MS residual rate). Type of data set: physicochemical. The conditions noted are these: 500 μM peptide plus equivalent of 1 M sodium hydroxide, 15° C., 20 minutes, LC/MS peak area. The gist of the method:
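Cyclic peptide at 500 μM in water treated with an equivalent of 1 M NaOH for 20 minutes at 15° C. Residual rate is the total LC/MS peak area after treatment relative to that before treatment, set as 100%. Analysis on a C18 column at 45° C with ammonium formate pH 3 eluents and ESI detection.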

Bridge positions count the residues as written; N and C are the ends. Peptide text beside a SMILES is read from it.

Chain of human integrin αvβ5 (P06756 31-889 limits assumed): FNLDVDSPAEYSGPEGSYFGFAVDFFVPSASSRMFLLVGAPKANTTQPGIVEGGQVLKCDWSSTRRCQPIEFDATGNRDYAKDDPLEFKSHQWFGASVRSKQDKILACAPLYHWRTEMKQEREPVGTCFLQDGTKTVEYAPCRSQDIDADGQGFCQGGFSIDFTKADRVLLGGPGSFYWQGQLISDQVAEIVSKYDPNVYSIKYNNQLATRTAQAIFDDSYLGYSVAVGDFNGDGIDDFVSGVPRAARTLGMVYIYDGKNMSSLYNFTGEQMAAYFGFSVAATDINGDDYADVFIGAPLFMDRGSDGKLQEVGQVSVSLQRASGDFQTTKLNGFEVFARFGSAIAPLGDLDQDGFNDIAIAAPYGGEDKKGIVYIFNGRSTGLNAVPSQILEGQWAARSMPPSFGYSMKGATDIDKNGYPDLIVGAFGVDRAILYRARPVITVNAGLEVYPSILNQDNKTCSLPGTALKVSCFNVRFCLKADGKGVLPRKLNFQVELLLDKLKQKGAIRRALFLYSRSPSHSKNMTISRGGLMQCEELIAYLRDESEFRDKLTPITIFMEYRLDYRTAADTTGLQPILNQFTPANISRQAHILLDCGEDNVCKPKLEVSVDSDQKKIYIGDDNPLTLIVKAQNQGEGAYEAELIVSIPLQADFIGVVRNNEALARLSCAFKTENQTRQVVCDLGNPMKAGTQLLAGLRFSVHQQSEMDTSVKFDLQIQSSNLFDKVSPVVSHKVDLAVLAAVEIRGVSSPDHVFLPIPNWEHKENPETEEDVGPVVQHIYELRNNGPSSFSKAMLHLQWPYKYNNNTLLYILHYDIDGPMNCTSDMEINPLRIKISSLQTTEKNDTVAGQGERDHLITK
Chain of human integrin αvβ5 (P06756 891-1048 partner limits assumed): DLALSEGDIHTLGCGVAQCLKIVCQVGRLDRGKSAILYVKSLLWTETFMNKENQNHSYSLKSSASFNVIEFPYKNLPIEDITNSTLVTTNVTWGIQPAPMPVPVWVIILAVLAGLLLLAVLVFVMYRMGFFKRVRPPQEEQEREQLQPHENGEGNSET
Chain of human integrin αvβ5 (P18084 24-799): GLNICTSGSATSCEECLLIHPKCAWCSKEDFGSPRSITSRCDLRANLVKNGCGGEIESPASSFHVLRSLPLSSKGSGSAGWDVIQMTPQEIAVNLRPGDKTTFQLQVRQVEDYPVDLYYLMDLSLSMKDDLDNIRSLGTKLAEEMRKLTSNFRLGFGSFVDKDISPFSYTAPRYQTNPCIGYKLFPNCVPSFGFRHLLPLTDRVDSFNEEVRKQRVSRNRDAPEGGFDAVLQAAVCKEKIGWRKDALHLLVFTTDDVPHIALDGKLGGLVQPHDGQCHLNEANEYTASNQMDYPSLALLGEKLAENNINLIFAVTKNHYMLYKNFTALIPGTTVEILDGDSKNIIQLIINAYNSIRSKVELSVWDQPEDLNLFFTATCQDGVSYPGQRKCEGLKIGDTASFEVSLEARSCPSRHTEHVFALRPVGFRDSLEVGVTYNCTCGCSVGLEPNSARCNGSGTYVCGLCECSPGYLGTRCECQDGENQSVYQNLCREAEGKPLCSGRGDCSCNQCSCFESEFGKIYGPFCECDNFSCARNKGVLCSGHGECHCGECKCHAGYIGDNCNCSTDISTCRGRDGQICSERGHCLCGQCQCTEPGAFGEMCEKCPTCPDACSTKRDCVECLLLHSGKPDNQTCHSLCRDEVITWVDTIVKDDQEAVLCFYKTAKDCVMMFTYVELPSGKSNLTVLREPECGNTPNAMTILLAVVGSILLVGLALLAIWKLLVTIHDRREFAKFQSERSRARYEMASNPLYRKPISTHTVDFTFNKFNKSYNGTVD

As for `C[C@H](N)C(=O)N[C@H]1CSSC[C@@H](C(=O)NCC(=O)N[C@@H](CCCCN)C(=O)N[C@@H](CCCCN)C(=O)N[C@@H](CCCCN)C(=O)O)NC(=O)[C@H](Cc2ccccc2)NC(=O)[C@@H]2CSSC[C@H](NC(=O)[C@H](CC(=O)O)NC1=O)C(=O)N[C@@H](CCCNC(=N)N)C(=O)NCC(=O)N[C@@H](CC(=O)O)C(=O)N2` [Cyclic peptide 49, ACDCRGDCFCGKKK, reference compound] (H-ACDCRGDCFCGKKK-OH; disulfide 2-10, 4-8), the Kd – broadly, a measure of binding affinity in units of concentration – at human integrin αvβ5 is < 50 nM. Besides, the “Molecule stability (cyclic peptide residual rate)” value in data set [1] is given as “D (The residual rate of the cyclic peptide is less than 30%.)”.
